From PubChem BioAssay (NCI)
Several values for one entry are separate records, joined by “and”; a condition that tells them apart may be missing. Equal entries are not always repeated.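 Compound exposure: 48 hours, 5 concentrations, 96-well plates. The concentration for 50% growth inhibition is given as GI50. TGI denotes the concentration required for complete inhibition of growth.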

How the values were obtained:
Experiment in all cases: NCI anticancer screen, dose series, 48 h
MALME-3M melanoma = system: MALME-3M melanoma
SF-295 CNS = system: SF-295 CNS
HCC-2998 colon = system: HCC-2998 colon
A549 NSCLC = system: A549 NSCLC
HCT-116 colon = system: HCT-116 colon
OVCAR-5 ovarian = system: OVCAR-5 ovarian
NCI-H226 lung = system: NCI-H226 lung
HT29 colon = system: HT29 colon
RXF 393 renal = system: RXF 393 renal
UO-31 renal = system: UO-31 renal

SMILES | TGI (MALME-3M melanoma) [µM] | TGI (SF-295 CNS) | TGI (HCC-2998 colon) [µM] | TGI (A549 NSCLC) [µM] | TGI (HCT-116 colon) [µM] | TGI (OVCAR-5 ovarian) [µM] | TGI (NCI-H226 lung) [µM] | TGI (HT29 colon) [µM] | TGI (RXF 393 renal) [µM] | TGI (UO-31 renal) [µM] | GI50 (MALME-3M melanoma) [µM] | GI50 (SF-295 CNS) [µM] | GI50 (NCI-H226 lung) [µM] | GI50 (RXF 393 renal) [µM] | GI50 (HCC-2998 colon) [µM] | GI50 (A549 NSCLC) [µM] | GI50 (HCT-116 colon) [µM] | GI50 (OVCAR-5 ovarian) [µM] | GI50 (HT29 colon) [µM] | GI50 (UO-31 renal) [µM]
CN=C(N)/N=C(\N)Nc1cc2ccccc2c2ccccc12 | 29.3 | 32.5 µM | 6.78 | 30.8 | 26 | 33 | 37.4 | 32.9 | 31.9 | 27.4 | – | – | – | – | – | – | – | – | – | –
COc1cc(NC(=O)CSc2nc3ccccc3c(=O)n2CCc2ccccc2)cc(OC)c1OC | 5.9 | 15.3 µM | – | – | – | – | 7.16 | – | 3.69 | – | 2.16 | 3.21 | 2.14 | 1.57 | – | – | – | – | – | –
CC(=O)N1CC(=O)NC1=S | > 100 | > 100 µM | – | > 100 | > 100 | > 100 | > 100 | > 100 | – | > 100 | – | – | – | – | – | – | – | – | – | –
O=C(Nc1cccc([N+](=O)[O-])c1)C(=O)C(C(=O)c1ccccc1F)C1OC(=O)C2C=CC=CC21 (stereo not drawn) | – | > 100 µM | > 100 | > 100 | 48.3 | > 100 | 52.9 | > 100 | 48.6 | > 100 | – | – | – | – | – | – | – | – | – | –
C/C=C1/CN2CCC34c5ccccc5N(C)C23C2CC1C4(C(=O)OC)C(O)O2 (stereo not drawn) | – | > 100 µM | > 100 | > 100 | > 100 | > 100 | > 100 | > 100 | – | > 100 | – | – | – | – | – | – | – | – | – | –
COc1c(O)c(O)c2c(c1O)C(=O)c1cc(C)cc(O)c1C2=O | 83.5 | > 69.7 µM | > 100 | > 100 | > 100 | > 100 | > 93.5 | > 85.4 | > 100 | > 100 | – | – | – | – | – | – | – | – | – | –
N#CCCOCN(CO)c1nc(N(CO)COCCC#N)nc(N(CO)COCCC#N)n1 | 46.9 | 43.7 µM | – | 58.3 | 63.8 | > 100 | 53.1 | 69.9 | 38.4 | 43.2 | – | – | – | – | – | – | – | – | – | –
c1ccc(CCN2CCOCC2)nc1 | > 100 | > 100 µM | > 100 | > 100 | > 100 | > 100 | > 100 | > 100 | > 100 | > 100 | – | – | – | – | – | – | – | – | – | –
Nc1cccc2c1C1=NNC(=O)CC1C2 (stereo not drawn) | > 100 | > 100 µM | > 100 | > 100 | > 100 | > 100 | > 100 | > 22.9 | > 100 | > 100 | – | – | – | – | – | – | – | – | – | –
O=C(NCCNc1nccc(-c2c(-c3cccc(O)c3)nc3sccn23)n1)Nc1cccc(C(F)(F)F)c1 | 7.3 | 29.7 µM | 5.77 | 8.44 | 11.5 | 65.3 | 28.5 | 10.8 | 5.1 | 16.8 | 2.09 | 4.16 | 9.99 | 2.41 | 2.68 | 2.98 | 3.56 | 16.3 | 3.45 | 3.25
Cc1c2cc[n+](C)cc2c(C)c2c1[nH]c1ccc(Cl)cc12 | 10.4 | 4.37 µM | 13.8 | 4.15 | 32.2 | 84.4 | 4.57 | 44.9 | 19.1 | 42.8 | – | – | – | – | – | – | – | – | – | –
CCOC(=O)C(=O)Nc1c(CC)cccc1C(C)CC (stereo not drawn) | > 100 | > 100 µM | > 100 | > 100 | > 100 | > 100 | > 100 | > 100 | > 100 | > 100 | – | – | – | – | – | – | – | – | – | –
C=Cc1cc(OC)c2c(c1)c(=O)oc1c2cc(OC)c2c(O)ccc(C3OC(C)C(O)C(C)(O)C3O)c21 (stereo not drawn) | – | 0.0099 µM and 0.0593 µM | – | 0.376 | – | – | – | 0.666 | – | – | 0.00153 | 0.000699 | – | 0.000174 | 0.00253 | 0.000716 | 0.000308 | 0.000251 | 0.000815 | 0.00184
CNS(=O)(=O)c1ccc2[nH]c(O)c(C3=Nc4ccccc4C3=O)c2c1 | > 100 | > 100 µM | > 100 | > 100 | > 100 | > 100 | > 100 | > 100 | > 100 | > 100 | – | – | – | – | – | – | – | – | – | –
NC(=O)Nc1ccc(C(=O)NCCCNC(=O)c2ccc(NC(N)=O)cc2)cc1 | > 100 | – | > 100 | > 100 | > 100 | > 100 | > 100 | > 100 | > 100 | > 100 | – | – | – | – | – | – | – | – | – | –
